From PMC7180948, “New Insights into 4-Anilinoquinazolines as Inhibitors of Cardiac Troponin I–Interacting Kinase (TNNi3K)” (Molecules, 2020) come the findings set out here.

What all share (experiment): biochemical
What all share (set-up): KINOMEscan competition binding panel (Eurofins DiscoverX), single concentration, % inhibition
What all share (conditions): read-out: 7 at 1 µM % inhibition

The target in assay [1] is AAK1 (Homo sapiens, UniProt Q2M2I8). Put shortly:
(§1)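 Selectivity profile from a KINOMEscan run against >400 human kinases; test concentration 1 µM.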

For assay [2], the target named is T1, ABL1(H396P)-phosphorylated (Homo sapiens, UniProt P00519, H396P).
T1 construct: phosphorylated
Put shortly: as §1

The target of assay [3] is T2, CDC2L2 (Homo sapiens, UniProt Q9UQ88).
T2 construct: gene CDK11A
In short, it runs like this: as §1

The target in assay [4] is CIT (Homo sapiens, UniProt O14578). Put shortly: as §1
Sequence of CIT (O14578 whole entry): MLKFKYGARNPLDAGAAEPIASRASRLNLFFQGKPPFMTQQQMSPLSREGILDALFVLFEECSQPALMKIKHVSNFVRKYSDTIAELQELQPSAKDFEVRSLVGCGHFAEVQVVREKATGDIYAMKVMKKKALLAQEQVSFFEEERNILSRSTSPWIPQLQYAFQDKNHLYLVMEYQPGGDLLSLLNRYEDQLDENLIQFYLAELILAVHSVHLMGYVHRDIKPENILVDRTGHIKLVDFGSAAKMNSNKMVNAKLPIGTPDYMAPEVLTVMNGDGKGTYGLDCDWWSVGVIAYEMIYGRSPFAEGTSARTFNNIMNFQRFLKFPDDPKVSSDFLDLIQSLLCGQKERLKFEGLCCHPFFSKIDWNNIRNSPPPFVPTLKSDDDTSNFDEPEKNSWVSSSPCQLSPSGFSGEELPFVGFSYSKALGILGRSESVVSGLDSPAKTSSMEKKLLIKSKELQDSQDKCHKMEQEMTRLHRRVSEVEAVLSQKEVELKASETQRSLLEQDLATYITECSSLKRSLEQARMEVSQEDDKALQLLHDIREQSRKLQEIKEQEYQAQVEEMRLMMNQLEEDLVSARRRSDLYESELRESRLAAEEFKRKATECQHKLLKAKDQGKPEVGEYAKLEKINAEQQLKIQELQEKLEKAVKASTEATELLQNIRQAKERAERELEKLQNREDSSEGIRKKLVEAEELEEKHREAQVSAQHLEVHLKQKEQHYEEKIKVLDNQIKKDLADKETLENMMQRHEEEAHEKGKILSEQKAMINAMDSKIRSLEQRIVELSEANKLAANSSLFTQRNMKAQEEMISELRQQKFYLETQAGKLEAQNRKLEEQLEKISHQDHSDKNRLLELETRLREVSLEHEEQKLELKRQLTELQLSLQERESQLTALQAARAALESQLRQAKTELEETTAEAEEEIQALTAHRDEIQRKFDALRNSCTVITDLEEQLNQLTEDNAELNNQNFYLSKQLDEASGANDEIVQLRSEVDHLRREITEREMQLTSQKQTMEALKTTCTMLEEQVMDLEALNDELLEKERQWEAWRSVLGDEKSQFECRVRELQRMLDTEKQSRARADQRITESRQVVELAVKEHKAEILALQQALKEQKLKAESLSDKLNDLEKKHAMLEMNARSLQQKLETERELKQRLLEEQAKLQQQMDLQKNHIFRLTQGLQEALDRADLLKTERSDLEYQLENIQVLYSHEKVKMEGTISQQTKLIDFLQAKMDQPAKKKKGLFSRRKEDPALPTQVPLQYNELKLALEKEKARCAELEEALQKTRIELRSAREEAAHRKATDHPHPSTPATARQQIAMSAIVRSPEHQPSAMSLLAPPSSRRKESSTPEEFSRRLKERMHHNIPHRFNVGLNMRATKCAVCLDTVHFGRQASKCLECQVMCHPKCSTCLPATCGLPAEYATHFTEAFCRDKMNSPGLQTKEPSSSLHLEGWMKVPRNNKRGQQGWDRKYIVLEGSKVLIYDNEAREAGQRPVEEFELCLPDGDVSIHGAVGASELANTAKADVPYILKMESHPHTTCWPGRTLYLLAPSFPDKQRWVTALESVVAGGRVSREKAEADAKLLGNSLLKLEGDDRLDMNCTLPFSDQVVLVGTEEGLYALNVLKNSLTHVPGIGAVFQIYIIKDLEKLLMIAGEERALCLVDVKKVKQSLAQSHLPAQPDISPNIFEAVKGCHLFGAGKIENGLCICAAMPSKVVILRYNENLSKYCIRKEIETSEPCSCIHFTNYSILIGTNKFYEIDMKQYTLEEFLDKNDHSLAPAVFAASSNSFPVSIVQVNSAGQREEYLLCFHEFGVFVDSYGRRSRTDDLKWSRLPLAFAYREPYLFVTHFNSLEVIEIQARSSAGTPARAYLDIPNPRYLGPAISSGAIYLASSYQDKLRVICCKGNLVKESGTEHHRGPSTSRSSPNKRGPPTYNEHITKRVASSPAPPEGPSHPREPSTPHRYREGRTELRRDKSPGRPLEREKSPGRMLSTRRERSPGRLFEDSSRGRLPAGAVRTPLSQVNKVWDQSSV
The target in assay [5] is CSNK1E (Homo sapiens, UniProt P49674). In short, it runs like this:
as §1

Assay [6] has as its target DAPK2 (Homo sapiens, UniProt Q9UIK4). Put shortly: as §1
Assay [7] concerns the target EGFR(E746-A750del) (Homo sapiens, UniProt P00533, DEL746-750). In short, it runs like this:
as §1

In assay [8] the target is ERBB4 (Homo sapiens, UniProt Q15303). Put shortly: as §1
The target in assay [9] is FGFR3(G697C) (Homo sapiens, UniProt P22607, G697C). In short, it runs like this: as §1
Sequence of FGFR3(G697C) (P22607 whole entry G697C): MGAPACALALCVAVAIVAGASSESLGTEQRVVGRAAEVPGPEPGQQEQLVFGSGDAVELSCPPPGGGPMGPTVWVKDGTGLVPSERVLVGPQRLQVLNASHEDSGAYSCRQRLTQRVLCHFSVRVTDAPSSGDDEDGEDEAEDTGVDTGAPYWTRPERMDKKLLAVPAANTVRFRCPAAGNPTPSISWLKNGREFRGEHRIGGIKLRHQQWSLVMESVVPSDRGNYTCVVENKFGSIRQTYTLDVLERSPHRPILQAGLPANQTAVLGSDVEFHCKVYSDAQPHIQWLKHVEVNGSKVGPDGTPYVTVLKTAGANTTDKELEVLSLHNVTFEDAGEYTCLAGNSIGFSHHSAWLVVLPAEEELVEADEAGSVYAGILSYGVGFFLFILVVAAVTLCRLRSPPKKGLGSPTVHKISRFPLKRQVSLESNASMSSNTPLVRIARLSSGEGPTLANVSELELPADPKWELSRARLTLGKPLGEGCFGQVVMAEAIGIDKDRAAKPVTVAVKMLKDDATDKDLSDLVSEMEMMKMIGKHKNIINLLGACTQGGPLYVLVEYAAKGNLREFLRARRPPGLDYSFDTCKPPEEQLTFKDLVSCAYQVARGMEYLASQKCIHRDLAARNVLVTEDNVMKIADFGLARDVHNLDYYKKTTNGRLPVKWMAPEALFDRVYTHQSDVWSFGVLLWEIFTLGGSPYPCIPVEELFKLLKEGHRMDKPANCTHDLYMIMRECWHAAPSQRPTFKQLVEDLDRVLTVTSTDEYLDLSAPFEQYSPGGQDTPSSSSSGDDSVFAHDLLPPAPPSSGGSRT
Assay [10] deals with IGF1R (Homo sapiens, UniProt P08069). In short, it runs like this: as §1
Assay [11] concerns the target T3, JAK1(JH2domain-pseudokinase) (Homo sapiens, UniProt P23458).
T3 construct: JH2domain-pseudokinase
Put shortly:
as §1

The target in assay [12] is T4, JNK1 (Homo sapiens, UniProt P45983).
T4 construct: gene MAPK8
Put shortly: as §1

Assay [13] addresses T5, MEK6 (Homo sapiens, UniProt P52564).
T5 construct: gene MAP2K6
Put shortly: as §1

Assay [14] has as its target T6, MLK3 (Homo sapiens, UniProt Q16584).
T6 construct: gene MAP3K11
Put shortly: as §1

The target in assay [15] is MYO3A (Homo sapiens, UniProt Q8NEV4). Put shortly:
as §1

In assay [16] the target is NEK7 (Homo sapiens, UniProt Q8TDX7). In short, it runs like this:
as §1

The target in assay [17] is T7, PCTK1 (Homo sapiens, UniProt Q00536).
T7 construct: gene CDK16
Put shortly:
as §1

Assay [18] addresses PIK3CA(M1043I) (Homo sapiens, UniProt P42336, M1043I). In short, it runs like this:
as §1

The target in assay [19] is T8, PRP4 (Homo sapiens, UniProt Q13523).
T8 construct: gene PRPF4B
Put shortly: as §1

The target in assay [20] is SRPK1 (Homo sapiens, UniProt Q96SB4). Put shortly: as §1
Assay [21] has as its target TAOK2 (Homo sapiens, UniProt Q9UL54). In short, it runs like this: as §1
The target in assay [22] is TNK2 (Homo sapiens, UniProt Q07912). Put shortly:
as §1

Assay [23] has as its target T9, YANK3 (Homo sapiens, UniProt Q86UX6).
T9 construct: gene STK32C
In short, it runs like this: as §1

For assay [24], the target named is T10, YES (Homo sapiens, UniProt P07947).
T10 construct: gene YES1
T10 sequence (P07947 whole entry): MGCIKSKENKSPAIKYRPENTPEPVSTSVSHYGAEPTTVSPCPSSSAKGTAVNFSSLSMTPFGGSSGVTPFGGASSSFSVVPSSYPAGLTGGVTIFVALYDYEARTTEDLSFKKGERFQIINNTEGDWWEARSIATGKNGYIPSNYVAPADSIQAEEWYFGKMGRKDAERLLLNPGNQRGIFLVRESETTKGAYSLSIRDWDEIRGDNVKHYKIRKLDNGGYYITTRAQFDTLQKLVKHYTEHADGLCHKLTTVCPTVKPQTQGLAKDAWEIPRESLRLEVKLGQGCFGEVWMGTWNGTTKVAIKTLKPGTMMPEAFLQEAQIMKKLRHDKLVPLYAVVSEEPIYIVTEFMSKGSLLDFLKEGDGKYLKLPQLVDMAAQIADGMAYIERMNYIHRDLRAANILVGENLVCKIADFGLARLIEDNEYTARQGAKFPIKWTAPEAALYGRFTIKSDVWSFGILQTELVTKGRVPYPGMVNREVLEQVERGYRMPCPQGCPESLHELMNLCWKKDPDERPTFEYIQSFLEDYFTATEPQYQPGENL
Put shortly: as §1

T3 sequence (P23458 whole entry): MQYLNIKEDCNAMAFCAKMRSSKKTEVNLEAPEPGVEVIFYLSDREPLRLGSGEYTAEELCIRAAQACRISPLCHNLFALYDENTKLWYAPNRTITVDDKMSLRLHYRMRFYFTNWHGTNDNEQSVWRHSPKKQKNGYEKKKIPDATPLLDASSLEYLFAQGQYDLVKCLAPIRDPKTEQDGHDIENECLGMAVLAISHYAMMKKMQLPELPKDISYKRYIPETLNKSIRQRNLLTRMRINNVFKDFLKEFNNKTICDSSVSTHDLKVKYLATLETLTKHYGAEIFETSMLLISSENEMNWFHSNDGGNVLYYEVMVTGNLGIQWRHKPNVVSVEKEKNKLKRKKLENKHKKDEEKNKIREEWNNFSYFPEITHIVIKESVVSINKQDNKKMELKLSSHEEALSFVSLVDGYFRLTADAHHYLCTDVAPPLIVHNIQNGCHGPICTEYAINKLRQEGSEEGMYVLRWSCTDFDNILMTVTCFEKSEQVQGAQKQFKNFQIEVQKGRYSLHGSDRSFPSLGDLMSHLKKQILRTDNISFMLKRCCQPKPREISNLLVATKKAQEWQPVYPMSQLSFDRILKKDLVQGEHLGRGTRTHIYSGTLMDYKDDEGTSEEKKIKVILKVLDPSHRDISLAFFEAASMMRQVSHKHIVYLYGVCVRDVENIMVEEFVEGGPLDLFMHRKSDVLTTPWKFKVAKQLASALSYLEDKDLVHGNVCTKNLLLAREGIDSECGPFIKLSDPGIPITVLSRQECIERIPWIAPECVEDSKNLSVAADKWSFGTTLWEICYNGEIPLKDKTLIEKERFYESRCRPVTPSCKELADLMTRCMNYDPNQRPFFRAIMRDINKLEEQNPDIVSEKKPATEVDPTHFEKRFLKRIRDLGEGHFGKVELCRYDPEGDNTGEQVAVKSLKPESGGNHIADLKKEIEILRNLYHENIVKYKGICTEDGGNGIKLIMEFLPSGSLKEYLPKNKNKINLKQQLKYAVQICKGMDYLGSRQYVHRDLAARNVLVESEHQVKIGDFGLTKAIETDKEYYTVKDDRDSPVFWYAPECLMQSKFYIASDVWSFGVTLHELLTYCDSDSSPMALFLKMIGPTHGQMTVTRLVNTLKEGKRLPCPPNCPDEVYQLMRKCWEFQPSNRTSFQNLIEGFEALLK
T5 sequence (P52564 whole entry): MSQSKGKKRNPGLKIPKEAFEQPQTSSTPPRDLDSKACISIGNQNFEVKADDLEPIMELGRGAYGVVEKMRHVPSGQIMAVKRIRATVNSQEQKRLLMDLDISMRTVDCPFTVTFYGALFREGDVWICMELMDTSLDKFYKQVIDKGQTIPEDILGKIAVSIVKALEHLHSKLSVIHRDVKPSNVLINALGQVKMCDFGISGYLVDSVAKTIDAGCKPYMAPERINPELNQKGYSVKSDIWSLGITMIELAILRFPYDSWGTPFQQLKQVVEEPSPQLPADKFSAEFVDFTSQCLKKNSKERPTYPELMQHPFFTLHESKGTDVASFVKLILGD

`CNS(=O)(=O)c1ccc(N(C)C)c(Nc2ncnc3cc(OC)c(OC)cc23)c1` [compound 7, 3-((6,7-dimethoxyquinazolin-4-yl)amino)-4-(dimethylamino)-N-methylbenzenesulfonamide]: the inhibition (commonly the drop in the measured response relative to a control, in per cent) at 1 µM in assay [1] worked out at 0%; in assay [2], 34%; in assay [3] it was 0%; in [4] it was 0%; in assay [5], 0%; in assay [6], 0%. Besides, the inhibition at 1 µM came to 25% in [7]; 0% in [8]; 0% in assay [9]; 0% in assay [10]; 20% in assay [11]; 8% in [12]. The inhibition at 1 µM in [13] turned out to be 0%; in assay [14] it was 0%; in [15], 0%; in assay [16] it was 0%; in assay [17] it was 13%; in [18], 29%. Besides, the inhibition at 1 µM in assay [19] was 24%; in assay [20] it was 0%; in assay [21] it was 20%; in assay [22] it was 26%; in assay [23] it was 0%; in assay [24], 0%.
